Test results taken from ChEMBL document CHEMBL1152717, “Discovery of mu-opioid selective ligands derived from 1-aminotetralin scaffolds made via metal-catalyzed ring-opening reactions” (Bioorg Med Chem Lett, 2009).

Key:
[1] = target: Kappa-type opioid receptor (Homo sapiens, UniProt P41145); experiment: Displacement of [125I]U69593 from human cloned kappa opioid receptor
[2] = target: Delta-type opioid receptor (Homo sapiens, UniProt P41143); experiment: Displacement of [125I]deltorphin 2 from human cloned delta opioid receptor
Delta-type opioid receptor, sequence (P41143 whole entry): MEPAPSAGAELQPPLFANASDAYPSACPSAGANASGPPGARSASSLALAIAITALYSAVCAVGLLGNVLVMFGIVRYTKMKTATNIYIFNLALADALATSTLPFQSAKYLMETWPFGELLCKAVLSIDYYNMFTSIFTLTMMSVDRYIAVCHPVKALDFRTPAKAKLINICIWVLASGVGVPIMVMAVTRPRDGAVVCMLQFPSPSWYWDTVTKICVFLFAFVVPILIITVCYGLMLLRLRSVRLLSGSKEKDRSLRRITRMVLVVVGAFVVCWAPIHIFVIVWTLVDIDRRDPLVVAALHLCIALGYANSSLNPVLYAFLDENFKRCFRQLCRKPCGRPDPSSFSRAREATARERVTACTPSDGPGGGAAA

[3] = target: T1, Mu-type opioid receptor (Homo sapiens, UniProt P35372); settings: at 100 µM
T1 sequence (P35372 whole entry): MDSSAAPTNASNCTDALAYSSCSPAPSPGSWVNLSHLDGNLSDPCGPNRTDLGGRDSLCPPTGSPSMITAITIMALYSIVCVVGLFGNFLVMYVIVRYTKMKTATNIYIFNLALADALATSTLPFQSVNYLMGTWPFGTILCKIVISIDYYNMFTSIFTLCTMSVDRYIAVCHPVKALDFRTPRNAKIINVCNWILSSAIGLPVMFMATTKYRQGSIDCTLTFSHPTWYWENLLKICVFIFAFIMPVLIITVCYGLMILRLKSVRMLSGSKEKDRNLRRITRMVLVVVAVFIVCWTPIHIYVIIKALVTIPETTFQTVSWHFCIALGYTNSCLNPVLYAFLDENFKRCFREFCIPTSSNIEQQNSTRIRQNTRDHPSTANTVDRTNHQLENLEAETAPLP
Description: Intrinsic activity at human cloned mu opioid receptor at 100 uM by [35S]GTPgammaS binding assay relative to DAMGO

[4] = target: T1, Mu-type opioid receptor; experiment: Displacement of [125I]FK33824 from human cloned mu opioid receptor
[5] = target: T1, Mu-type opioid receptor; experiment: Agonist activity at human cloned mu opioid receptor by [35S]GTPgammaS binding assay; type: functional

Kappa-type opioid receptor, sequence (P41145 whole entry): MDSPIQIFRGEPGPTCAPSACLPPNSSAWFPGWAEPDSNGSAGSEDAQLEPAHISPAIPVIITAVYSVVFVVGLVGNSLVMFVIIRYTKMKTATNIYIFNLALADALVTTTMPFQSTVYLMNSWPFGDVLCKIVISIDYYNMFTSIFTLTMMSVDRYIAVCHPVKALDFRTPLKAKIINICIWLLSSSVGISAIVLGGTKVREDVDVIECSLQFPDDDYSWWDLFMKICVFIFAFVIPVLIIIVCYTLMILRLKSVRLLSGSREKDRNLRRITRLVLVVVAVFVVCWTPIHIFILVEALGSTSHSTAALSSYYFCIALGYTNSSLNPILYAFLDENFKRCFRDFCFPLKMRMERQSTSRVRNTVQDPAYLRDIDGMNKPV

Q: Which IC50 [1] does the source give for `COCCN[C@@H]1c2ccccc2CC[C@H]1c1ccsc1` here?
A: 707 nM

Q: And the IC50 [2]?
A: 3800 nM

Q: How did the Emax [3] turn out when `C[C@@]12CCCCC[C@@H](Cc3ccc(O)cc31)[C@@H]2N` was run?
A: 6%

Q: Which IC50 [1] does the source give for `COCCN(C(=O)c1cc(C)nn1C)C1c2ccccc2CCC1c1ccsc1` (racemic) here?
A: > 10000 nM

Q: What about the IC50 [4] of the same molecule?
A: 4860 nM

Q: And the IC50 [2]?
A: 1270 nM

Q: With `COCCNC1c2ccccc2CCC1c1ccsc1` (racemic) as the molecule, how does the IC50 [1] read?
A: 2210 nM

Q: Which IC50 [1] does the source give for `COCCN(C(=O)COCc1ccccc1)C1c2ccccc2C=CC1N1CCN(c2ccccc2)CC1` (racemic) here?
A: > 10000 nM

Q: And the IC50 [4]?
A: 211 nM

Q: And the EC50 [5]?
A: > 90000 nM

Q: What about the Emax [3] of the same molecule?
A: 10%

Q: What about the IC50 [2] of the same molecule?
A: 3890 nM

Q: `COCCN(C(=O)c1ccc(Cl)c(Cl)c1)C1c2ccccc2C=CC1N1CCN(c2ccccc2)CC1` (racemic) was tested. Which IC50 [1] did it give?
A: > 10000 nM

Q: And the IC50 [4]?
A: 443 nM

Q: And the EC50 [5]?
A: > 90000 nM

Q: And the Emax [3]?
A: 60%

Q: And the IC50 [2]?
A: 3620 nM

Q: With `COCCN(C(=O)Cc1cccc(OC)c1)C1c2ccccc2C=CC1N1CCN(c2ccccc2)CC1` (racemic) as the molecule, how does the IC50 [1] read?
A: > 10000 nM

Q: And the IC50 [4]?
A: 151 nM

Q: And the EC50 [5]?
A: > 90000 nM

Q: What about the Emax [3] of the same molecule?
A: 10%

Q: And the IC50 [2]?
A: 1470 nM

Q: What does the source list for `COCCN(C(=O)Cc1ccc(Cl)cc1)C1c2ccccc2C=CC1N1CCN(c2ccccc2)CC1` (racemic)?
A: IC50 [1]: 7990 nM; IC50 [4]: 181 nM; EC50 [5]: > 90000 nM; Emax [3]: 0%; IC50 [2]: 1950 nM

Q: How did the IC50 [4] turn out when `COCCN(C(=O)c1sccc1Cl)[C@H]1c2ccccc2C=C[C@@H]1N1CCN(c2ccccc2)CC1` was run?
A: 2800 nM

Q: Which results are given for `COCCN(C(=O)c1sccc1Cl)[C@@H]1c2ccccc2C=C[C@H]1N1CCN(c2ccccc2)CC1`?
A: IC50 [1]: 1320 nM; IC50 [4]: 58 nM; IC50 [2]: 1240 nM

Q: Which IC50 [1] does the source give for `COCCN(C(=O)c1sccc1Cl)C1c2ccccc2C=CC1N1CCN(c2ccccc2)CC1` (racemic) here?
A: 7140 nM

Q: And the IC50 [4]?
A: 100 nM

Q: And the EC50 [5]?
A: > 90000 nM

Q: What about the Emax [3] of the same molecule?
A: 0%

Q: And the IC50 [2]?
A: 2290 nM
